One data set deals with benzodiazepine receptor. The data set is described as follows: inhibition of [^3 H]-flunitrazepam binding to the benzodiazepine receptor. The protocol:
Anxiolytic activity was evaluated in vitro according to the method of Chiu et al. [Mol. Pharmacol. 21, 57 (1982)] by determining the IC50 for the inhibition of [^3 H]-flunitrazepam binding to the benzodiazepine receptor.
*Inhibition of [^3 Hflunitroazepam binding to the benzodiazepine

For data set [1], the system named is adult female mice. In words: SC-MET, subcutaneous Metrazole (pentylenetetrazol) test (chemically induced seizures). Format: in vivo. As to conditions: for ED50: Mus musculus, sc, ED50 for protection. As to the method: (§1) Briefly, test compound was administered to adult female mice, followed by either electrical (60 Hz, 5 msec. pulse width […] intensity for 0.2 seconds) or chemical [Metrazole® (pentylenetetrazol)] challenge. […] Results are expressed either as percent protection at a given dose or as the ED50 for protection.
^+ SCMET = subcutaneous Metrazole ® test; results given as %
protection at a given dose (mg/kg) or ED50 (mg/kg).

Data set [2] relates to mouse. The data set is described as follows: loss of righting reflex test procedure (ataxia). Format: in vivo. The protocol:
Compounds with anticonvulsant activity typically cause ataxia, an undesirable side effect, at some dose. Representative compounds of this invention were evaluated in a loss of righting reflex test procedure [A. P. Roszkowski, J. Pharmacol. Exp. Ther. 129, 75-81 (1960)]. Briefly, the compound to be evaluated was administered to a mouse which was then placed upside down in its cage. Failure to right itself within 20 seconds was considered to be loss of the righting reflex. Results are expressed as percent of mice losing righting reflex at a given dose.

Data set [3] concerns mouse. In words: exploratory light/dark test procedure (anxiolytic activity). Format: in vivo. As to the method:
Anxiolytic activity also was evaluated in vivo in an exploratory […] test procedure [Young et al., Soc. Neurosci. Abs. 14,207 (1988) and Costall et al., Brit. J. Pharmacol. 93,985 (1988)]. Briefly, test compound was administered to a mouse which was placed in a two compartment light-dark activity monitoring box. Control animals typically move to the dark side of the box to avoid the bright light. Animals treated with anxiolytic agents spend more time exploring the lit side of the box than control animals. […]
The following table summarizes the results of representative compounds of this invention in the light/dark exploratory test procedure for anxiolytic activity. Compounds were compared with diazepam as a reference standard at each dose level.

Data set [4] concerns adult female mice. In words: MES, maximal electroshock test (electrically induced seizures). To be noted: Mus musculus; for responders at 100 mg/kg / responders at 31.6 mg/kg: read-out: MES (% protection). The class given is in vivo. The protocol: as §1
**MES = Maximal electroshock test; results given as % protection at a
given dose (mg/kg) or ED50 (mg/kg).
A general note: Protection in the maximal electroshock model is a classic sign of anticonvulsant action.

The mark [5] stands for this setting: [^3 H]-flunitrazepam, in vitro, read-out: ^3 H-Flu binding IC50.

Where “and” joins values, the source holds several entries; their conditions need not be identical. Identical values can stand only once. Like-named read-outs stand apart in the source and are kept apart here.

One may read the IC50 as the concentration needed to halve the response being measured. The ED50 is the midpoint of the dose-response relation. Read a high ED50 as weaker potency. With `Cc1ccc(-c2nc3cccnc3n2Cc2nc(C)c[nH]2)cc1` [Example 12], at benzodiazepine receptor (setting [5]), the IC50 was 220 nM. Also, the 50% effect level in the data set with adult female mice [1] (ED50) was put at a dose of 14.8 mg/kg. The “% Loss of Righting Reflex” value in the data set on mouse [2] (dose 100 mg/kg) was 0%. Moreover, the “% of Time in Lit Area, Compound” value in the data set with mouse [3] (dose 1.0 mg/kg) came to 38%; in the data set on mouse [3] (dose 3.16 mg/kg), 40%; with mouse [3] (dose 10.0 mg/kg), 51%; in the data set on mouse [3] (dose 31.6 mg/kg), 48%. The responders at 100 mg/kg in the data set on adult female mice [4] is 0%.
As for `Clc1ccc(-c2nc3cccnc3n2Cc2ncc[nH]2)cc1` [Example 8, 2-(4-Chlorophenyl)-3-(1H-imidazol-2-ylmethyl)-3H-imidazo[4,5-b]pyridine], the IC50 at benzodiazepine receptor (setting [5]) was 410 nM. Besides, the “SC-MET (% protection)” value in the data set with adult female mice [1] (dose 31.6 mg/kg) is given as 0%. In addition, in the data set with mouse [2] (dose 31.6 mg/kg), the “% Loss of Righting Reflex” value was 0%. Moreover, the responders at 31.6 mg/kg in the data set on adult female mice [4] was determined as 0%.
With `Cc1ccc(-c2nc3ccc(C)nc3n2Cc2ccccn2)cc1` [Example 6, 5-Methyl-2-(4-methylphenyl)-3-(2-pyridinylmethyl)-3H-imidazo[4,5-b]pyridine], the IC50 at benzodiazepine receptor (setting [5]) was 3900 nM. The molecule further registered a 50% effective dose (ED50) with adult female mice [1] of 38.1 mg/kg. Also, in the data set with mouse [2] (dose 100 mg/kg), the “% Loss of Righting Reflex” value is reported as 0%. Further, the “% of Time in Lit Area, Compound” value turned out to be 36% in the data set with mouse [3] (dose 3.16 mg/kg) and 38% with mouse [3] (dose 10.0 mg/kg). Besides, the responders at 100 mg/kg in the data set with adult female mice [4] was 12.5%.
For the molecule `Clc1ccc(-c2nc3ccc(Cl)nc3n2Cc2ncc[nH]2)cc1` [Example 10, 5-Chloro-2-(4-chlorophenyl)-3-(1H-imidazol-2-ylmethyl)-3H-imidazo[4,5-b]pyridine], the IC50 on benzodiazepine receptor (setting [5]) worked out at 130 nM; at benzodiazepine receptor (obtained on reevaluation, read-out: ^3 H-Flu binding IC50 (reevaluation)), 160 nM. This molecule yielded a 50% effective dose (ED50) with adult female mice [1] of 8.6 mg/kg. Further, the “% Loss of Righting Reflex” value in the data set with mouse [2] (dose 100 mg/kg) is on record as 0%. Besides, the “% of Time in Lit Area, Compound” value in the data set on mouse [3] (dose 0.01 mg/kg) is on record as 35%; in the data set with mouse [3] (dose 0.1 mg/kg), 37%; with mouse [3] (dose 3.16 mg/kg) it was 49%; in the data set on mouse [3] (dose 5.62 mg/kg) it was 49%; in the data set with mouse [3] (dose 10.0 mg/kg), 40%. Moreover, the “% of Time in Lit Area, Compound (additional result)” value with mouse [3] (dose 10 mg/kg, additional result in footnote) is given as 38%. Moreover, in the data set on mouse [3] (mouse, in vivo, 17.8 mg/kg), the “sedation, Compound” value is reported as “sedation”.
In the case of `Cc1ccc(-c2nc3ccc(Cl)nc3n2Cc2ccccn2)cc1` [Example 4, 5-Chloro-2-(4-methylphenyl)-3-(2-pyridinylmethyl)-3H-imidazo[4,5-b]pyridine], at benzodiazepine receptor (setting [5]), the half-maximal inhibitory concentration (IC50) worked out at 1600 nM. For the same molecule, the ED50 in the data set with adult female mice [1] worked out at 38.8 mg/kg. Also, in the data set with mouse [2] (dose 100 mg/kg), the “% Loss of Righting Reflex” value came to 0%.
For the molecule `Cc1ccc2nc(-c3ccc(Cl)cc3)n(Cc3ccccn3)c2n1` [Example 7, 2-(4-Chlorophenyl)-5-methyl-3-(2-pyridinylmethyl)-3H-imidazo[4,5-b]pyridine], the IC50 at benzodiazepine receptor (setting [5]) came out at 7300 nM. Also, the median effective dose (ED50) in the data set on adult female mice [1] is 29.4 mg/kg; in the data set on adult female mice [4] (ED50 for protection), 76 mg/kg. The “% Loss of Righting Reflex” value in the data set on mouse [2] (dose 100 mg/kg) is 62.5%.
In the case of `Cc1ccc(-c2nc3ccc(Cl)nc3n2Cc2ncc[nH]2)cc1` [Example 5, 5-Chloro-3-(1H-imidazol-2-ylmethyl)-2-(4-methylphenyl)-3H-imidazo[4,5-b]pyridine], the IC50 at benzodiazepine receptor (setting [5]) was 300 nM. In the data set with adult female mice [1], this molecule returned a 50% effective dose (ED50) of 6.92 mg/kg. Besides, in the data set on mouse [2] (dose 100 mg/kg), the “% Loss of Righting Reflex” value stood at 0%. Also, the responders at 100 mg/kg in the data set on adult female mice [4] came out at 0%.
As to `Clc1ccc(-c2nc3cccnc3n2Cc2ccccn2)cc1` [Example 1, 2-(4-Chlorophenyl)-3-(2-pyridinylmethyl)-3H-imidazo[4,5-b]pyridine], the IC50 at benzodiazepine receptor (setting [5]) came out at 7000 nM. Also, the “SC-MET (% protection)” value with adult female mice [1] (dose 100 mg/kg) came to 37.5%. Besides, in the data set on mouse [2] (dose 100 mg/kg), the “% Loss of Righting Reflex” value is 0%. In addition, in the data set with adult female mice [4], the responders at 100 mg/kg worked out at 0%.
Consider `CN1C(=O)CN=C(c2ccccc2)c2cc(Cl)ccc21` [Diazepam, diazepam, reference compound], for which the “% of Time in Lit Area, Diazepam” value is 27% in the data set on mouse [3] (diazepam reference, row of dose 0.01 mg/kg); 27% in the data set on mouse [3] (diazepam reference, row of dose 0.1 mg/kg); 28% and 26% in the data set with mouse [3] (diazepam reference, row of dose 1.0 mg/kg, 1 mg/kg); 26% and 27% and 28% in the data set with mouse [3] (diazepam reference, row of dose 3.16 mg/kg, 3.16 mg/kg); 27% in the data set with mouse [3] (diazepam reference, row of dose 5.62 mg/kg); 26% and 28% in the data set on mouse [3] (diazepam reference, row of dose 10.0 mg/kg, 10 mg/kg). Besides, the “% of Time in Lit Area, Diazepam” value with mouse [3] (diazepam reference, row of dose 31.6 mg/kg, 31.6 mg/kg) was 28% and 26%. Besides, in the data set with mouse [3] (diazepam reference, row of dose 17.8 mg/kg), the “sedation, Diazepam” value is listed as “sedation”. Also, the “% of Time in Lit Area, Diazepam (additional result)” value in the data set with mouse [3] (dose of 10 mg/kg, additional result in footnote) amounted to 28%.
With `Cc1ccc(-c2nc3cccnc3n2Cc2ncc[nH]2)cc1` [Example 9, 3-(1H-Imidazol-2-ylmethyl)-2-(4-methylphenyl)-3H-imidazo[4,5-b]pyridine], at benzodiazepine receptor (setting [5]), the half-inhibitory concentration (IC50) is 140 nM. Also, in the data set with adult female mice [1], the 50% effective dose (ED50) came to 15.4 mg/kg. Moreover, the responders at 31.6 mg/kg in the data set with adult female mice [4] worked out at 0%.
For `Cc1c[nH]c(Cn2c(-c3ccc(Cl)cc3)nc3cccnc32)n1` [Example 11, 2-(4-Chlorophenyl)-3-(4-methyl-1H-imidazol-2-ylmethyl)-3H-imidazo[4,5-b]pyridine], the half-inhibitory concentration (IC50) at benzodiazepine receptor (setting [5]) amounted to 390 nM. The molecule further displayed an ED50 in the data set with adult female mice [1] of 16.8 mg/kg. Also, the “% Loss of Righting Reflex” value in the data set on mouse [2] (dose 100 mg/kg) worked out at 0%. In addition, the “% of Time in Lit Area, Compound” value in the data set with mouse [3] (dose 1.0 mg/kg) came out at 38%; with mouse [3] (dose 3.16 mg/kg), 40%; in the data set with mouse [3] (dose 10.0 mg/kg) it was 40%; with mouse [3] (dose 31.6 mg/kg), 53%. In addition, the responders at 100 mg/kg in the data set with adult female mice [4] stood at 0%.
Regarding `Clc1ccc(-c2nc3ccc(Cl)nc3n2Cc2ccccn2)cc1` [Example 3, 5-Chloro-2-(4-chlorophenyl)-3-(2-pyridinylmethyl)-3H-imidazo[4,5-b]pyridine], the concentration for half-maximal inhibition (IC50) at benzodiazepine receptor (setting [5]) was found to be 3300 nM. In the data set on adult female mice [1] (dose 100 mg/kg), the “SC-MET (% protection)” value came to 62.5%. For the same molecule, the “% Loss of Righting Reflex” value in the data set on mouse [2] (dose 100 mg/kg) amounted to 0%. For the same molecule, the responders at 100 mg/kg in the data set on adult female mice [4] amounted to 0%.
Regarding `Cc1ccc(-c2nc3cccnc3n2Cc2ccccn2)cc1` [Example 2, 2-(4-Methylphenyl)-3-(2-pyridinylmethyl)-3H-imidazo[4,5-b]pyridine], at benzodiazepine receptor (setting [5]), the IC50 amounted to 3100 nM. This molecule returned a 50% effective dose (ED50) in the data set on adult female mice [1] of 48.7 mg/kg. In the data set on mouse [2] (dose 100 mg/kg), the “% Loss of Righting Reflex” value is 0%. Also, the responders at 100 mg/kg in the data set with adult female mice [4] is 25%.
